PMC6615261, “Repurposing Azithromycin and Rifampicin Against Gram-Negative Pathogens by Combination With Peptidomimetics” (Frontiers in Cellular and Infection Microbiology, 2019)
Read-outs that look alike come from different tables or passages of the source. Values belong to the molecule of their own block, whether it stands above or below them.

Assays:
[1] = test system: K. pneumoniae ST258
Procedure: (§1) The potential synergistic effects in peptidomimetic-antibiotic combinations were assessed by using a two-dimensional checkerboard assay (Garcia, [2010]). Briefly, twofold dilutions of peptide and antibiotic were prepared in MBH II media along the X- and Y-axis, respectively, in 96-well plates. The inoculum was added to the plates, and subsequently these were incubated for 18–20 h. All steps for inoculum preparation and broth microdilution were in accordance with the CLSI guidelines (Clinical and Laboratory Standards Institute, [2013]). The fractional inhibitory concentration index (FICI) was calculated as [MICA(A+B)/MICA(alone)] + [MICB(A+B)/MICB(alone)], where MICA(A+B) represents the MIC of antibiotic (A) in combination with peptidomimetic (B), while MICB(A+B) represents the MIC of peptidomimetic (B) in combination with antibiotic (A). MICA(alone) and MICB(alone) represent the MIC of each compound individually. FICI values of ≤0.5 were interpreted as synergy.

[2] = test system: P. aeruginosa ATCC 27853
Procedure: as §1

[3] = test system: E. coli ST131
Procedure: as §1

[4] = test system: P. aeruginosa clinical isolates and reference strains; assay: MIC of fixed-ratio peptidomimetic 1-antibiotic combinations in clinical isolates and reference strains; assay type: cell-based, Pseudomonas aeruginosa; details: with 1–8 μM of 1
Text: (§2) Bacterial strains used in this study comprise MDR clinical isolates of E. coli ST131 (Cerquetti et al., [2010]) and K. pneumoniae ST258 (Jana et al., [2017]), and American type culture collection (ATCC) strains: ATCC 25922 (E. coli), ATCC 13883 (K. pneumoniae), and ATCC 27853 (P. aeruginosa). Additional clinical isolates of E. coli, K. pneumoniae, and P. aeruginosa resistant to β-lactams (including carbapenems and cephalosporins) were provided by Laurent Poirel, Université de Fribourg, Switzerland. The following growth media was routinely used for bacterial culturing: Luria-Burtani (LB), cation-adjusted Mueller-Hinton agar (MHA) and broth (MHB II). All assays were performed in cation-adjusted MHA or MHB II. Antibiotics were purchased from Sigma-Aldrich and the peptidomimetic collection (Table S1) was curated and provided by Henrik Franzyk. […]
(§3) Minimal inhibitory concentrations (MICs) of peptidomimetics, antibiotics and their combinations were determined by broth microdilution according to the Clinical Laboratory Standards Institute performance standards (Clinical and Laboratory Standards Institute, [2013]). […] Potentiation of additional antibiotics by peptidomimetics was determined by using commercial 96-well plates containing varied concentrations of standard antibiotics (COMPAN1F; Trek Diagnostic Systems Inc.). The peptidomimetics were added immediately prior to inoculation with pathogen, and then MICs were determined as above. The MICs of peptidomimetic/antibiotic combinations were determined according to the method above, and the concentration ratios were selected based upon checkerboard results with 2:1 and 1:4 ratio of peptidomimetic with rifampicin or azithromycin, respectively. Minimal bactericidal concentrations (MBCs) were determined by using growth-curve assay plates. […] Growth was recorded at 10 min intervals as optical density (OD) at 600 nm during 24 h. […]

[5] = test system: E. coli clinical isolates and reference strains; assay: as above; assay type: cell-based, Escherichia coli; details: in combination with 0.5–1 μM peptidomimetic 1
Text: as §2, §3

[6] = test system: K. pneumoniae ST258; details: K. pneumoniae ST258; growth-curve assay
Procedure: (§4) Minimal inhibitory concentrations (MICs) of peptidomimetics, antibiotics and their combinations were determined by broth microdilution according to the Clinical Laboratory Standards Institute performance standards (Clinical and Laboratory Standards Institute, [2013]). […] Since rifampicin and azithromycin mainly are used to treat infections with Gram-positive pathogens only CLSI clinical breakpoints were available for such bacteria. […] Potentiation of additional antibiotics by peptidomimetics was determined by using commercial 96-well plates containing varied concentrations of standard antibiotics (COMPAN1F; Trek Diagnostic Systems Inc.). The peptidomimetics were added immediately prior to inoculation with pathogen, and then MICs were determined as above. The MICs of peptidomimetic/antibiotic combinations were determined according to the method above, and the concentration ratios were selected based upon checkerboard results with 2:1 and 1:4 ratio of peptidomimetic with rifampicin or azithromycin, respectively. Minimal bactericidal concentrations (MBCs) were determined by using growth-curve assay plates. MIC plates were prepared as above, and then the plates were incubated at 37°C with continuous shaking. Growth was recorded at 10 min intervals as optical density (OD) at 600 nm during 24 h. At 24 h, for wells without growth, a sample was diluted 10-fold in sterile saline (0.9% sodium chloride) and plated onto MHA, following CLSI guidelines (Clinical and Laboratory Standards Institute, [1999]).

[7] = test system: P. aeruginosa ATTC 27853; details: P. aeruginosa ATTC 27853; growth-curve assay
Procedure: as §4

[8] = test system: E. coli ST131; details: E. coli ST131; growth-curve assay
Procedure: as §4

[9] = test system: NIH 3T3 and HepG2 cells; assay: Effect on viability of mammalian cells (both cell lines); assay type: cell-based, mouse and human
Procedure: (§5) NIH 3T3 and HepG2 cells (both from ATCC, Manassas, VA, USA) were cultured in flat-bottomed 96-well MicroWell™ plates (NUNC, Roskilde, Denmark) at seeding densities of ~23,000 and ~22,000 cells/well, respectively, and then cultured for 22–24 h under standard culturing conditions (37°C, 5% CO2, humidified air) to reach 80–90% confluence. NIH 3T3 were cultured in Dulbecco's modified Eagle's medium (DMEM) supplemented with 10% (v/v) newborn-calf serum (NCS) (Gibco, Paisly, UK), while HepG2 were cultured in Eagle's minimum essential medium (EMEM) supplemented with 10% (v/v) fetal bovine serum (FBS, Gibco, Paisly, UK), sodium pyruvate (1 mM), and non-essential amino acids (1%, v/v). Both culturing media were further supplemented with penicillin (100 U/mL), streptomycin (100 μg/mL), and L-glutamine (2 mM).
(§6) Effect on cell viability was determined in NIH 3T3 fibroblasts and HepG2 hepatocytes by using the MTS/PMS assay measuring metabolic activity. Briefly, the adhered cells were washed with 37°C Hanks' balanced salt solution (HBSS from Sigma-Aldrich, St. Louis, MO, USA), containing 10 mM HEPES (AppliChem, Darmstadt, Germany), and adjusted to pH 7.4, and were then exposed for 1 h to 100 μL of test compound(s) dissolved in the appropriate culturing medium without serum for each cell line. After exposure the cells were washed with HBSS containing 10 mM HEPES (pH 7.4) and 100 μL of an MTS/PMS solution, consisting of 240 μg/mL MTS (Promega, Madison, WI, USA) and 2.4 μg/mL PMS (SigmaAldrich, Buchs, Switzerland) in HBSS, was added to the cells, which then were incubated for 1 h at 37°C with horizontal shaking under light protection. Absorbance was measured at 492 nm by using a POLARstar OPTIMA plate reader (BMG Labtech, Offenburg, Germany). The relative viability was calculated according to Equation (1) with absorbance values obtained after incubation of cells with test compound; incubation with SDS (0.2%, w/v in medium) defined 100% cell death (Abspos), while the absorbance of cells incubated with medium defined 0% cell death (Absneg).
(§7) (1) Relative viability(%)=(Abssample-Abspos)/(Absneg-Abspos)×100%
(§8) EC50 values were calculated by using GraphPad Prism 7 (GraphPad Software, La Jolla, CA, USA) via fitting of the relative cell viability to the concentration of the test compound by using Equation (2):
(§9) (2) Relative viability(%)= Top-Bottom/1+10^(LogIC50-Log[peptidomimetic]) ×Hill slope
With top and bottom representing the mean highest and lowest observed values, respectively. The Hill slope represents a factor for the steepness of the linear part of the curve. […] The selectivity index was calculated as the average effect on cell viability (EC50 values for HepG2 and NIH 3T3 cells) divided by the MIC.

[10] = MTS/PMS cell viability assay; assay type: cell-based; details: human, HepG2 hepatocytes, 1 h exposure, read-out: Cytotoxicity HepG2 EC50 ± SD
Procedure: as §5, §6, §7, §8, §9
(§10) With top and bottom representing the mean highest and lowest observed values, respectively. The Hill slope represents a factor for the steepness of the linear part of the curve. In order to prevent erroneous calculation, the top and bottom values were constrained to 100 and 0%, respectively. Data were collected from technical triplicates. The selectivity index was calculated as the average effect on cell viability (EC50 values for HepG2 and NIH 3T3 cells) divided by the MIC.

[11] = test system: MDR E. coli ST131; assay: Screening of peptidomimetic-antibiotic combinations (growth / growth inhibition); assay type: cell-based, Escherichia coli; design: key to Growth in combination with RIF / Growth in combination with AZM: Growth (+); growth inhibition (–)
Procedure: as §4

[12] = test system: E. coli ST131; assay: MIC by broth microdilution; assay type: cell-based, Escherichia coli
Procedure: as §4

[13] = MTS/PMS cell viability assay; assay type: cell-based, mouse; details: mouse, NIH 3T3 fibroblasts, 1 h exposure, read-out: Cytotoxicity NIH 3T3 EC50 ± SD
Procedure: as §5, §6, §7, §8, §9, §10

[14] = test system: K. pneumoniae ST258; assay: Screening of peptidomimetic-antibiotic combinations (growth / growth inhibition); assay type: cell-based, Klebsiella pneumoniae; design: key to Growth in combination with RIF / Growth in combination with AZM: Growth (+); growth inhibition (–)
Procedure: as §4

[15] = test system: K. pneumoniae ST258; assay: MIC by broth microdilution; assay type: cell-based, Klebsiella pneumoniae
Procedure: as §4

[16] = test system: P. aeruginosa ATCC 27853; assay: MIC by broth microdilution; assay type: cell-based, Pseudomonas aeruginosa
Procedure: as §4

[17] = P. aeruginosa ATCC 27853, checkerboard
[18] = MIC of azithromycin combined with the labelled peptidomimetic
[19] = MIC of rifampicin combined with the labelled peptidomimetic
[20] = 0.5 μM peptidomimetic + 0.5 μg/mL rifampicin
[21] = peptidomimetic 0.5 μM + azithromycin 1 μg/mL
[22] = peptidomimetic 0.5 μM + rifampicin 0.5 μg/mL
[23] = average of EC50 (HepG2, NIH 3T3) divided by MIC

Antibiotic MIC alone ([1]; checkerboard): 32 µg/mL | Antibiotic MIC alone [2, 17]: >128 µg/mL | Antibiotic MIC alone ([3]; checkerboard): 8 µg/mL | MIC of antibiotic in combination, P. aeruginosa isolates (typical) [4]: 4 to 8 µg/mL | MIC (antibiotic alone) [6]: >32 µg/mL | MIC (antibiotic alone) [7]: >128 µg/mL | MIC (antibiotic alone) [8]: 8 µg/mL
Structure (SMILES): CC[C@H]1OC(=O)[C@H](C)[C@@H](O[C@H]2C[C@@](C)(OC)[C@@H](O)[C@H](C)O2)[C@H](C)[C@@H](O[C@@H]2O[C@H](C)C[C@H](N(C)C)[C@H]2O)[C@](C)(O)C[C@@H](C)CN(C)[C@H](C)[C@@H](O)[C@]1(C)O [Azithromycin, azithromycin]
Antibiotic concentration to which most E. coli isolates proved susceptible in combination [5]: 2 to 4 µg/mL | MBC (antibiotic alone) [6]: >32 µg/mL | MBC (antibiotic alone) [7]: >128 µg/mL | MBC (antibiotic alone) [8]: >16 µg/mL

Antibiotic MIC in combination (CLI) ([1]; MIC of CLI combined with the labelled peptidomimetic): 4 µg/mL | Antibiotic MIC in combination (AZM) [1, 18]: 8 µg/mL | Antibiotic MIC in combination (RIF) [1, 19]: 0.06 µg/mL | Peptidomimetic MIC alone ([1]; checkerboard): 8 µM | Peptidomimetic MIC in combination ([1]; combined with AZM): 0.5 µM | Peptidomimetic MIC in combination ([1]; combined with CLI): 0.5 µM | Peptidomimetic MIC in combination ([1]; combined with RIF): 0.5 µM | Antibiotic MIC in combination (AZM) ([2]; P. aeruginosa ATCC 27853, MIC of azithromycin combined with the labelled peptidomimetic): 0.5 µg/mL | Antibiotic MIC in combination (RIF) ([2]; P. aeruginosa ATCC 27853, MIC of rifampicin combined with the labelled peptidomimetic): 0.06 µg/mL | Peptidomimetic MIC alone [2, 17]: 2 µM | Peptidomimetic MIC in combination ([2]; P. aeruginosa ATCC 27853, combined with AZM): 1 µM | Peptidomimetic MIC in combination ([2]; P. aeruginosa ATCC 27853, combined with RIF): 0.5 µM | Reduction of the MIC of azithromycin ([2]; P. aeruginosa, sub-MIC concentrations of peptidomimetic): 32- to 512 fold | Antibiotic MIC in combination (AZM) [3, 18]: 1 µg/mL | Antibiotic MIC in combination (RIF) [3, 19]: 0.5 µg/mL | Peptidomimetic MIC alone ([3]; checkerboard): 1 µM | Peptidomimetic MIC in combination ([3]; combined with AZM): 0.25 µM | Peptidomimetic MIC in combination ([3]; combined with RIF): 0.25 µM | MIC E. coli ST131 ([12]; peptidomimetic alone): 1 µM | MIC K. pneumoniae ST258 ([15]; peptidomimetic alone): 8 µM | MIC P. aeruginosa ATCC 27853 ([16]; peptidomimetic alone): 2 µM
Structure (SMILES): C[C@@H](c1ccccc1)N(CCC(N)=O)C(=O)[C@H](CCCCNC(=N)N)NC(=O)CCN(C(=O)[C@H](CCCCN)NC(=O)CCN(C(=O)[C@H](CCCCNC(=N)N)NC(=O)CCN(C(=O)[C@H](CCCCN)NC(=O)CCN(C(=O)[C@H](CCCCNC(=N)N)NC(=O)CCN(C(=O)[C@H](CCCCN)NC(=O)CNCCCNCCCCNCCCN)[C@@H](C)c1ccccc1)[C@@H](C)c1ccccc1)[C@@H](C)c1ccccc1)[C@@H](C)c1ccccc1)[C@@H](C)c1ccccc1 [Peptidomimetic 26, Spermine-(Lys-βNspe-hArg-βNspe)3-NH2]
EC50 [9]: 50 to 60 µM | EC50 at 1 h [10]: 59.6 ± 0.71 µM | Screening result with rifampicin [11, 20]: inhibit growth | Growth in combination with AZM [11, 21]: – | Growth in combination with RIF [11, 22]: – | Selectivity Index (SI) E. coli ST131 [12, 23]: (56) | EC50 at 1 h [13]: 53.2 ± 2.94 µM | Screening result with rifampicin [14, 20]: inhibit growth | Growth in combination with AZM [14, 21]: + | Growth in combination with RIF [14, 22]: – | Selectivity Index (SI) K. pneumoniae ST258 [15, 23]: (7) | Selectivity Index (SI) P. aeruginosa ATCC 27853 [16, 23]: (28)
